This test deals with T1, ePL-tagged GSPT1 (Homo sapiens, UniProt P15170+Q96SW2).
T1 construct: expressed in transfected cells; host or cells: DF15 multiple myeloma cells
In words: GSPT1 DiscoverX Degradation Assay. The test is classed as cell-based. Particulars: DF15 multiple myeloma cells expressing ePL-tagged GSPT1; twenty hours; minimum of percent of control curve (Ataluren control Y constant=0, DMSO control = Y max). Here is the method: GSPT1 DiscoverX Degradation Assay.
Compounds were dispensed by an acoustic dispenser (ATS Acoustic Transfer System from EDC Biosystems) into a 384-well in a 10 pt dose response curve using 3 fold dilutions starting at 10 uM and going down to 0.0005 uM in DMSO. A DMSO control is added to the assay. […] Assay plates were incubated at 37° C. with 5% CO2 for twenty hours. After incubation, 25 μl of the InCELL Hunter™ Detection Reagent Working Solution (DiscoverX, cat #96-0002, Fremont, CA) was added to each well and incubated at room temperature for 30 minutes protected from light. After 30 minutes, luminescence was read on a PHERAstar luminometer (Cary, NC).
The minimum Y is reference to the Y constant. In the GSPT1 degradation assay, we use Ataluren® (luciferase inhibitor) as the control with a Y constant=0. The maximum limit is the Y max DMSO control. All percent of control GSPT1 degradation curves were processed and evaluated using Activity Base (IDBS).

T1 sequence (P15170 whole entry): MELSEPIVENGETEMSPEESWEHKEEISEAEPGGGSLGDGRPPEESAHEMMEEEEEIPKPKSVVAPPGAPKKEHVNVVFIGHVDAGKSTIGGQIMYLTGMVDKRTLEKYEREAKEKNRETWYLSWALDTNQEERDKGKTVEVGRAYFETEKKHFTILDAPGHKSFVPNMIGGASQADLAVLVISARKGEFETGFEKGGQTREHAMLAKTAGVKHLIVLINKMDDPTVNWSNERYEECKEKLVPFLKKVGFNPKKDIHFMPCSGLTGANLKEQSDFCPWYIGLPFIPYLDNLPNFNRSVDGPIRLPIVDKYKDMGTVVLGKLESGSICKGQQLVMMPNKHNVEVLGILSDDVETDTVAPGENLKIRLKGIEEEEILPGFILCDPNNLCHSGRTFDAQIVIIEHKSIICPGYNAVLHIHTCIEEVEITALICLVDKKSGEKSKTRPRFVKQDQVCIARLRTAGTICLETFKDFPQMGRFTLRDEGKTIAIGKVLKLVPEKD
T1 sequence (Q96SW2 whole entry): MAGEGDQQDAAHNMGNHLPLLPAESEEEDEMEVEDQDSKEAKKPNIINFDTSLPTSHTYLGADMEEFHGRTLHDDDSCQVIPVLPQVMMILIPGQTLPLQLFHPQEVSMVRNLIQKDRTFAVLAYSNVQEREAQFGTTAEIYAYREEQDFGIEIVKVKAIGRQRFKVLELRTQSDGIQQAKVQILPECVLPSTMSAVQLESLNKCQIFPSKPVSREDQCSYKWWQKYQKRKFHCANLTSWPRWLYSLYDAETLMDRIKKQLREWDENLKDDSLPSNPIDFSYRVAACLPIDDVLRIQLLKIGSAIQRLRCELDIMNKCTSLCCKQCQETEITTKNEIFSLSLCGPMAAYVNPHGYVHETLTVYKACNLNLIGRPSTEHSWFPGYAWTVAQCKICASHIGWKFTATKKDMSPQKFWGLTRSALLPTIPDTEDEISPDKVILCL
T1 sequence (Q16531 whole entry partner): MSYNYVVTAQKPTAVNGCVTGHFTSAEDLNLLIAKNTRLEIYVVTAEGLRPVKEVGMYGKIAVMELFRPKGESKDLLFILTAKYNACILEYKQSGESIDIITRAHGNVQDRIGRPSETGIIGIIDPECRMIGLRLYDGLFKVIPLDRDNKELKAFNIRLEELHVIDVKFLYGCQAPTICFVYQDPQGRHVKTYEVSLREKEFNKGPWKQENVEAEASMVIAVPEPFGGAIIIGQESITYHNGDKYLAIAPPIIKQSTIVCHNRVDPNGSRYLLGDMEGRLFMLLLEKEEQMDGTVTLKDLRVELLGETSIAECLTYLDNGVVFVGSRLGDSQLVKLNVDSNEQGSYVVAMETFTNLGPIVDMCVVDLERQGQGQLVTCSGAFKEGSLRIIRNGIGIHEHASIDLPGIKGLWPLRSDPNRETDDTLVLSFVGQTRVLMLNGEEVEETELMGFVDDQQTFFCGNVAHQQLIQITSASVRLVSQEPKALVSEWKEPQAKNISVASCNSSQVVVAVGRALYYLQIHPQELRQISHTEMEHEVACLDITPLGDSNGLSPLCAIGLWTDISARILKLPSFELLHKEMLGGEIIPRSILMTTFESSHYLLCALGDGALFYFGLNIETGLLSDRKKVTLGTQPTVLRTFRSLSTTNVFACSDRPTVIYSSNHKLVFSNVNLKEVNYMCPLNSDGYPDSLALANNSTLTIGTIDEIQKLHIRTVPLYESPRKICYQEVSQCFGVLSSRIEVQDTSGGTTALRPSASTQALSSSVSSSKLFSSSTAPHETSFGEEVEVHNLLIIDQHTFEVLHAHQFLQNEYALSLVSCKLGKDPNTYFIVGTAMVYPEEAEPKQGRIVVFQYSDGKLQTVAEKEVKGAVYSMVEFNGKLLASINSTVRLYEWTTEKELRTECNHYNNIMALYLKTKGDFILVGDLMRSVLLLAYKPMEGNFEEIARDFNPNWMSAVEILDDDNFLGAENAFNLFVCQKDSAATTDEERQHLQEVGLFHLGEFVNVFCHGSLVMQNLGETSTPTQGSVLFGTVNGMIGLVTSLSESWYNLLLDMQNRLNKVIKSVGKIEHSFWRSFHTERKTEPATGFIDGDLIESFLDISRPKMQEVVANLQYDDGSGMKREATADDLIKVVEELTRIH

Take `O=C1CCC(N2Cc3cc(CNC(=O)Nc4ccc(OCc5ccc(CO)cc5)cc4)ccc3C2=O)C(=O)N1` (centres unmarked) [Example 1, 1-((2-(2,6-dioxopiperidin-3-yl)-1-oxoisoindolin-5-yl)methyl)-3-(4-((4-(hydroxymethyl)benzyl)oxy)phenyl)urea]: the “GSPT1 Degradation Ymin” value is 3.00.

On to `NCc1ccc(COc2ccc(NC(=O)NCc3ccc4c(c3)CN(C3CCC(=O)NC3=O)C4=O)cc2)cc1` (centres unmarked) [Example 2, 1-[4-[[4-(aminomethyl)phenyl]methoxy]phenyl]-3-[[2-(2,6-dioxo-3-piperidyl)-1-oxo-isoindolin-5-yl]methyl]urea], for which the “GSPT1 Degradation Ymin” value came to 4.34.

Consider `NCc1ccccc1COc1ccc(NC(=O)NCc2ccc3c(c2)CN(C2CCC(=O)NC2=O)C3=O)cc1` (centres unmarked) [Example 3, 1-(4-((2-(aminomethyl)benzyl)oxy)phenyl)-3-((2-(2,6-dioxopiperidin-3-yl)-1-oxoisoindolin-5-yl)methyl)urea], for which the “GSPT1 Degradation Ymin” value is recorded as 7.30.

Regarding `NCc1cccc(COc2ccc(NC(=O)NCc3ccc4c(c3)CN(C3CCC(=O)NC3=O)C4=O)cc2)c1` (centres unmarked) [Example 4, 1-(4-((3-(aminomethyl)benzyl)oxy)phenyl)-3-((2-(2,6-dioxopiperidin-3-yl)-1-oxoisoindolin-5-yl)methyl)urea], the “GSPT1 Degradation Ymin” value turned out to be 6.80.

Regarding `Nc1cccc(COc2ccc(NC(=O)NCc3ccc4c(c3)CN(C3CCC(=O)NC3=O)C4=O)cc2)c1` (centres unmarked) [Example 5, 1-(4-((3-aminobenzyl)oxy)phenyl)-3-((2-(2,6-dioxopiperidin-3-yl)-1-oxoisoindolin-5-yl)methyl)urea], the “GSPT1 Degradation Ymin” value came to 3.00.

On to `O=C1CCC(N2Cc3cc(CNC(=O)Nc4ccc(OCc5ccccc5)cc4)ccc3C2=O)C(=O)N1` (centres unmarked) [Example 6, 1-[4-(benzyloxy)phenyl]-3-{[2-(2,6-dioxopiperidin-3-yl)-1-oxo-2,3-dihydro-1H-isoindol-5-yl]methyl}urea], for which the “GSPT1 Degradation Ymin” value worked out at 3.00.

For `O=C1CCC(N2Cc3cc(CNC(=O)Nc4ccc(OCc5cccc(CO)c5)cc4)ccc3C2=O)C(=O)N1` (centres unmarked) [Example 7, 1-((2-(2,6-dioxopiperidin-3-yl)-1-oxoisoindolin-5-yl)methyl)-3-(4-((3-(hydroxymethyl)benzyl)oxy)phenyl)urea], the “GSPT1 Degradation Ymin” value is listed as 4.00.

`O=C1CCC(N2Cc3cc(CNC(=O)Nc4ccc(OCc5ccccc5CO)cc4)ccc3C2=O)C(=O)N1` (centres unmarked) [Example 8, 1-((2-(2,6-dioxopiperidin-3-yl)-1-oxoisoindolin-5-yl)methyl)-3-(4-((2-(hydroxymethyl)benzyl)oxy)phenyl)urea]: the “GSPT1 Degradation Ymin” value stood at 4.00.

Turning to `O=C1CCC(N2Cc3cc(CNC(=O)Nc4ccc(OCc5ccccc5O)cc4)ccc3C2=O)C(=O)N1` (centres unmarked) [Example 9, 1-((2-(2,6-dioxopiperidin-3-yl)-1-oxoisoindolin-5-yl)methyl)-3-(4-((2-hydroxybenzyl)oxy)phenyl)urea], the “GSPT1 Degradation Ymin” value worked out at 3.50.

Regarding `O=C1CCC(N2Cc3cc(CNC(=O)Nc4ccc(OCc5ccccc5O)cc4)ccc3C2=O)C(=O)N1` (centres unmarked) [Example 10, 1-((2-(2,6-dioxopiperidin-3-yl)-1-oxoisoindolin-5-yl)methyl)-3-(4-((2-hydroxybenzyl)oxy)phenyl)urea], the “GSPT1 Degradation Ymin” value is listed as 4.00.

For the compound `NCc1ccc(COc2ccc(NC(=O)NCc3ccc4c(c3)CN(C3CCC(=O)NC3=O)C4=O)cc2)c(F)c1` (centres unmarked) [Example 11, 1-(4-{[4-(aminomethyl)-2-fluorophenyl]methoxy}phenyl)-3-{[2-(2,6-dioxopiperidin-3-yl)-1-oxo-2,3-dihydro-1H-isoindol-5-yl]methyl}urea], the “GSPT1 Degradation Ymin” value is 6.71.

Turning to `Cc1cc(CN)ccc1COc1ccc(NC(=O)NCc2ccc3c(c2)CN(C2CCC(=O)NC2=O)C3=O)cc1` (centres unmarked) [Example 12, 1-(4-{[4-(aminomethyl)-2-methylphenyl]methoxy}phenyl)-3-{[2-(2,6-dioxopiperidin-3-yl)-1-oxo-2,3-dihydro-1H-isoindol-5-yl]methyl}urea], the “GSPT1 Degradation Ymin” value was determined as 5.39.

As to `NCc1ccc(COc2ccc(NC(=O)NCc3ccc4c(c3)CN(C3CCC(=O)NC3=O)C4=O)cc2)nc1` (centres unmarked) [Example 13, 1-(4-{[5-(aminomethyl)pyridin-2-yl]methoxy}phenyl)-3-{[2-(2,6-dioxopiperidin-3-yl)-1-oxo-2,3-dihydro-1H-isoindol-5-yl]methyl}urea], the “GSPT1 Degradation Ymin” value is 6.75.

On to `NCc1ccc(COc2ccc(NC(=O)NCc3ccc4c(c3)CN(C3CCC(=O)NC3=O)C4=O)cc2)cn1` (centres unmarked) [Example 14, 1-(4-{[6-(aminomethyl)pyridin-3-yl]methoxy}phenyl)-3-{[2-(2,6-dioxopiperidin-3-yl)-1-oxo-2,3-dihydro-1H-isoindol-5-yl]methyl}urea], for which the “GSPT1 Degradation Ymin” value was determined as 5.83.

Take `NCc1cnc(COc2ccc(NC(=O)NCc3ccc4c(c3)CN(C3CCC(=O)NC3=O)C4=O)cc2)nc1` (centres unmarked) [Example 15, 1-(4-{[5-(aminomethyl)pyrimidin-2-yl]methoxy}phenyl)-3-{[2-(2,6-dioxopiperidin-3-yl)-1-oxo-2,3-dihydro-1H-isoindol-5-yl]methyl}urea]: the “GSPT1 Degradation Ymin” value is 3.10.

With `NCc1ccc(COc2ccc(NC(=O)NCc3ccc4c(c3)CN(C3CCC(=O)NC3=O)C4=O)cc2)nn1` (centres unmarked) [Example 16, 1-(4-{[6-(aminomethyl)pyridazin-3-yl]methoxy}phenyl)-3-{[2-(2,6-dioxopiperidin-3-yl)-1-oxo-2,3-dihydro-1H-isoindol-5-yl]methyl}urea], the “GSPT1 Degradation Ymin” value was determined as 12.67.

On to `Cc1cc(NC(=O)NCc2ccc3c(c2)CN(C2CCC(=O)NC2=O)C3=O)ccc1OCc1ccc(CN)cc1` (centres unmarked) [Example 17, 1-(4-{[4-(aminomethyl)phenyl]methoxy}-3-methylphenyl)-3-{[2-(2,6-dioxopiperidin-3-yl)-1-oxo-2,3-dihydro-1H-isoindol-5-yl]methyl}urea], for which the “GSPT1 Degradation Ymin” value stood at 15.91.

As for `NCc1ccc(COc2ccc(NC(=O)NCc3ccc4c(c3)CN(C3CCC(=O)NC3=O)C4=O)cc2F)cc1` (centres unmarked) [Example 18, 1-(4-{[4-(aminomethyl)phenyl]methoxy}-3-fluorophenyl)-3-{[2-(2,6-dioxopiperidin-3-yl)-1-oxo-2,3-dihydro-1H-isoindol-5-yl]methyl}urea], the “GSPT1 Degradation Ymin” value was found to be 54.45.

`NCc1ccc(COc2ccc(NC(=O)NCc3ccc4c(c3)CN(C3CCC(=O)NC3=O)C4=O)nn2)cc1` (centres unmarked) [Example 19, 1-(6-{[4-(aminomethyl)phenyl]methoxy}pyridazin-3-yl)-3-{[2-(2,6-dioxopiperidin-3-yl)-1-oxo-2,3-dihydro-1H-isoindol-5-yl]methyl}urea]: the “GSPT1 Degradation Ymin” value was 6.55.

On to `NCc1ccc(COc2ccc(NC(=O)NCc3ccc4c(c3)CN(C3CCC(=O)NC3=O)C4=O)cn2)cc1` (centres unmarked) [Example 20, 1-(6-{[4-(aminomethyl)phenyl]methoxy}pyridin-3-yl)-3-{[2-(2,6-dioxopiperidin-3-yl)-1-oxo-2,3-dihydro-1H-isoindol-5-yl]methyl}urea], for which the “GSPT1 Degradation Ymin” value is 7.50.

For the compound `CCc1cc(CN)ccc1COc1ccc(NC(=O)NCc2ccc3c(c2)CN(C2CCC(=O)NC2=O)C3=O)cc1` (centres unmarked) [Example 21, 1-(4-{[4-(aminomethyl)-2-ethylphenyl]methoxy}phenyl)-3-{[2-(2,6-dioxopiperidin-3-yl)-1-oxo-2,3-dihydro-1H-isoindol-5-yl]methyl}urea], the “GSPT1 Degradation Ymin” value was determined as 10.44.

Consider `CCCc1cc(CN)ccc1COc1ccc(NC(=O)NCc2ccc3c(c2)CN(C2CCC(=O)NC2=O)C3=O)cc1` (centres unmarked) [Example 22, 1-(4-{[4-(aminomethyl)-2-n-propylphenyl]methoxy}phenyl)-3-{[2-(2,6-dioxopiperidin-3-yl)-1-oxo-2,3-dihydro-1H-isoindol-5-yl]methyl}urea], for which the “GSPT1 Degradation Ymin” value stood at 9.46.

With `COc1cc(CN)ccc1COc1ccc(NC(=O)NCc2ccc3c(c2)CN(C2CCC(=O)NC2=O)C3=O)cc1` (centres unmarked) [Example 23, 1-(4-{[4-(aminomethyl)-2-methoxyphenyl]methoxy}phenyl)-3-{[2-(2,6-dioxopiperidin-3-yl)-1-oxo-2,3-dihydro-1H-isoindol-5-yl]methyl}urea], the “GSPT1 Degradation Ymin” value is listed as 8.85.

For the compound `CC(C)Oc1cc(CN)ccc1COc1ccc(NC(=O)NCc2ccc3c(c2)CN(C2CCC(=O)NC2=O)C3=O)cc1` (centres unmarked) [Example 24, 1-(4-{[4-(aminomethyl)-2-(propan-2-yloxy)phenyl]methoxy}phenyl)-3-{[2-(2,6-dioxopiperidin-3-yl)-1-oxo-2,3-dihydro-1H-isoindol-5-yl]methyl}urea], the “GSPT1 Degradation Ymin” value stood at 10.04.

Turning to `NCc1ccc(COc2ccc(NC(=O)NCc3ccc4c(c3)CN(C3CCC(=O)NC3=O)C4=O)cc2)c(Cl)c1` (centres unmarked) [Example 25, 1-(4-{[4-(aminomethyl)-2-chlorophenyl]methoxy}phenyl)-3-{[2-(2,6-dioxopiperidin-3-yl)-1-oxo-2,3-dihydro-1H-isoindol-5-yl]methyl}urea], the “GSPT1 Degradation Ymin” value came to 5.50.

With `NCc1ccc(COc2ccc(NC(=O)NCc3ccc4c(c3)CN(C3CCC(=O)NC3=O)C4=O)cc2)c(OC2COC2)c1` (centres unmarked) [Example 26, 1-(4-{[4-(aminomethyl)-2-(oxetan-3-yloxy)phenyl]methoxy}phenyl)-3-{[2-(2,6-dioxopiperidin-3-yl)-1-oxo-2,3-dihydro-1H-isoindol-5-yl]methyl}urea], the “GSPT1 Degradation Ymin” value was found to be 6.92.
